Laboratory results taken from US7192983B2, “N-protected/N-substituted-beta-amino hydroxy sulfonates” (G.D. Searle & Co., priority 1995, dated 2007).

Assay: Determination of storage stability at ambient temperature (purity by HPLC)
Assay type: physicochemical
Experimental: 2S-[Bis (phenylmethyl) amino]-1-hydroxy-3-phenylpropyl sulfonic acid, sodium salt (5 grams) was treated with stirring with an aqueous solution of 5 grams of potassium carbonate in 50 mL of water at room temperature. The aqueous solution was extracted once with a 50 mL portion of ethyl acetate. The organic solvent solutions were combined and removed under reduced pressure. The residue was dissolved in the tetrahydrofuran (THF), filtered through a cotton filter plug and the solvent removed under reduced pressure. […] The samples were placed on the column diluted in 90% hexane, 5% isopropanol and 5% tert-butylmethyl ether.
The experiment extended through 61 days with purity determinations made on days 0 (t=0), 3 (t=3), 6 (t=6), 18 (t=18) and 61 (t=61). A sample of the salt was treated with aqueous potassium carbonate and extracted with ethyl acetate on day 0. The ethyl acetate was removed under reduced pressure to provide the aldehyde and this sample was used as a t=0 […] reference standard for the stability determination (“Aldehyde Sample”). The t=0 sample of the aldehyde was then stored at ambient temperature in a capped, brown glass bottle side by side with the stored sample of the salt. The purity of the salt was then measured on days 3 (t=3), 8 (t=8), 15 (t=15) and 21 (t=21).

% aldehyde remaining (day 8, stored at ambient temperature in capped brown glass bottle): 64% | % aldehyde remaining (day 15, stored at ambient temperature in capped brown glass bottle): 23% | % aldehyde remaining (day 18, stored at ambient temperature in capped brown glass bottle): 10%
Structure (SMILES): O=C[C@H](Cc1ccccc1)N(Cc1ccccc1)Cc1ccccc1 [Aldehyde Sample, 2S-[bis(phenylmethyl)amino]-3-phenylpropanal]
